Measurements reported in patent publication US20260034135A1, “USE OF N6-BENZYLAMINOPURINE AS AN APPETITE SUPPRESSANT” (THE GOVERNING COUNCIL OF THE UNIVERSITY OF TORONTO, priority 2022, published 2026).

Key:
Format in all cases: cell-based, mouse
mHypoE-46 cell line [1] = experiment: Gene expression by qRT-PCR in mHypoE-46 hypothalamic cell line; design: insulin receptor subunit beta (Insrb) expression by qRT-PCR: dose or concentration left out as unconfirmed; details: for effect of PKA inhibition on BAP effect on Npy expression: n=2
Protocol: (§1) Hypothalamic neurons from embryonic and adult mice were previously immortalized to generate the clonal cell lines mHypoE-46, mHypoE-44, mHypoE-41, mHypoE-38, mHypoA-59, a FAC-sorted POMC/GFP mouse-derived cell line, mHypoA-POMC/GFP-2, and a mixed culture mHypoA-Bmal1-WT/F cell line (6, 13, 14). The mHypoE-46, mHypoE-44, and mHypoA-Bmal1-WT/F lines were cultured in DMEM containing 1000 mg/L glucose supplemented with 5% FBS and 1% pen/strep. The mHypoE-41, mHypoE-38, and mHypoA-59 cell lines were cultured in DMEM containing 4500 mg/L glucose supplemented with 2% FBS and 1% pen/strep. The mHypoA-POMC/GFP-2 line was cultured in DMEM containing 1000 mg/L glucose supplemented with 2% FBS and 1% pen/strep. All cells were maintained in 5% CO2 at 37° C. BAP was initially dissolved in DMSO solvent (vehicle control) to achieve 1000x the intended dose. The BAP solution was then diluted 1:1000 with the growth media used for the cell line. For co-treatment experiments, the vehicle control for ATP, UDP, and PKI was water, and for the H89 PKA inhibitor was DMSO. Neuropeptide gene expression levels were determined by qRT-PCR.
For cell culture experiments, total RNA was isolated using PureLink RNA isolation kit (Thermofisher Scientific, Burlington, ON, Canada) according to the manufacturer's instruction with on column DNase step (PureLink DNAse kit) or DNase I treatment to remove genomic DNA. For mouse experiments, total RNA was isolated using mirVana PARIS RNA and native protein isolation kit (Thermofisher Scientific). RNA quality and quantity were measured using Nanodrop 2000 and 500-1000 ng of complimentary DNA (cDNA) was synthesized with High Capacity cDNA Reverse Transcription kit (Applied biosystems, Thermofisher Scientific). Quantitative reverse transcription polymerase chain reaction (RT-qPCR) was performed with 12.5 ng of cDNA amplified with Platinum SYBR green qPCR SuperMix-UDG with ROX on an Applied Biosystems Prism 7900HT or PowerTrack Green Master Mix on an Applied Biosystems QuantStudio 5 and gene specific primers as per manufacturer's instructions (Table 1). Data was analyzed using […] and normalized to reference gene, either 60S ribosomal protein L7 (Rpl7) or Histone 3a (His).

mHypoE-38 cell line = experiment: Gene expression by qRT-PCR in mHypoE-38 hypothalamic cell line; details: 100 μM BAP, 16 hr
Protocol: as §1, with “All cells were maintained in 5% CO2 at 37° C. BAP was initially dissolved in DMSO solvent (vehicle control) to achieve 1000x the intended dose. The BAP solution was then diluted 1:1000 with the growth media used for the cell line. For co-treatment experiments, the vehicle control for ATP, UDP, and PKI was water, and for the H89 PKA inhibitor was DMSO.” left out
For cell culture experiments, total RNA was isolated using PureLink RNA isolation kit (Thermofisher Scientific, Burlington, ON, Canada) according to the manufacturer's instruction with on column DNase step (PureLink DNAse kit) or DNase I treatment to remove genomic DNA. […] RNA quality and quantity were measured using Nanodrop 2000 and 500-1000 ng of complimentary DNA (cDNA) was synthesized with High Capacity cDNA Reverse Transcription kit (Applied biosystems, Thermofisher Scientific). […] Data was analyzed using […] and normalized to reference gene, either 60S ribosomal protein L7 (Rpl7) or Histone 3a (His).

ERK1/2 = ERK1/2 (Thr202/Tyr204) phosphorylation by Western blot in mHypoE-46; details: 100 μM BAP, 5 minutes
Protocol: mHypoE-46 cells were serum starved in 5.5 mM glucose (LG) DMEM for 1 hour prior to treatment with vehicle (0.1% DMSO), 100 µM BAP or H20, […] 5-Aminoimidazole-4-carboxamide ribonucleotide (AICAR) or 0 mM glucose DMEM. Protein was harvested using 1× cell lysis buffer (Cell Signaling Technologies, Inc, CST) containing protease and phosphatase inhibitors. A total of 30 μg protein was separated on a 12% SDS-polyacrylamide gels and transferred onto PVDF membranes. […] Protein density was quantified using ImageJ or the iBright Imaging System.
We also assessed the activity of another key signal transduction cascade, the MAPK ERK1/2 pathway. mHypoE-46 neurons were treated with 100 μM BAP and vehicle control for 5 minutes followed by protein isolation and Western blot analysis. The phosphorylation level of ERK1/2, one of the MAPK family members, was assessed.

mHypoE-46 cell line [2] = experiment: RNA-sequencing (RNA-seq) of mHypoE-46 exposed to BAP; details: 100 μM BAP
Protocol: To assess global mRNA gene expression changes, we exposed the mHypoE-46 line to 100 μM BAP for 4 and 16 h and assess mRNA expression via RNA-sequencing (RNA-seq). […] It is already known that a decrease in mTORC1 signaling results in a decrease in Npy through decreases in p70-S6K activity (18-20). […] Specifically, the gene expression of the upstream inhibitors of mTORC1, sestrin2 (Sesn2) (21) and tuberous sclerosis complex 2 (Tsc2) were both increased with BAP; whereas the gene expression of two downstream effectors inhibited by mTORC1, 4e-BP1 (Eif4ebp1) and ULK1 (Ulk1), were increased as well, indicating an overall negative regulation of mTORC1 activity (see FIG. 42A and 42B).

[3] = 100 μM BAP, validation of RNAseq (FIG. 42A 4 hr, 42B 16 hr)
[4] = both 4 and 16 h, validated in mHypoE-46

c1ccc(CNc2ncnc3nc[nH]c23)cc1 [BAP, N6-benzylaminopurine]
effect of PKA inhibition on BAP effect on Npy expression (mHypoE-46 cell line [1]; 100 μM BAP + 1 μM H89, 16 hr): unable to block the effects of BAP on Npy expression
effect of PKA inhibition on BAP effect on Npy expression (mHypoE-46 cell line [1]; 100 μM BAP + 10 μM PKI, 16 hr): unable to block the effects of BAP on Npy expression
Npy expression under co-treatment with palmitate (mHypoE-46 cell line [1]; 100 μM BAP + 50 μM palmitate, 16 hr): rescues the palmitate-mediated increase in Npy expression
Npy mRNA under co-treatment with ATP (mHypoE-46 cell line [1]; 100 μM BAP + 100 μM ATP, 16 hr): overcome this induction and supress Npy mRNA levels
Npy mRNA under co-treatment with UDP (mHypoE-46 cell line [1]; 100 μM BAP + 100 μM UDP, 16 hr): still able to supress the gene
Npy mRNA under co-treatment with UTP (mHypoE-46 cell line [1]; 100 μM BAP + 100 μM UTP, 16 hr, n=2 preliminary): still able to supress the gene
PI3K subunit (Pik3r1) gene expression (mHypoE-46 cell line [1]; 100 μM BAP, 4 and 16 h): significantly increased
Nadpk1 expression level (mHypoE-46 cell line [1]; 100 μM BAP, 16 h): significantly decreased
Nadpk2 expression level (mHypoE-46 cell line [1]; 100 μM BAP, 16 h): not changed
Agrp mRNA expression (mHypoE-46 cell line [1]; 100 μM BAP, 16 hr): increased
Npy mRNA expression (mHypoE-46 cell line [1]; 100 μM BAP, 16 hr): supressed
4e-BP1 (Eif4ebp1) gene expression (mHypoE-46 cell line [1]; [3]): increased
ULK1 (Ulk1) gene expression (mHypoE-46 cell line [1]; [3]): increased
sestrin2 (Sesn2) gene expression (mHypoE-46 cell line [1]; [3]): increased
tuberous sclerosis complex 2 (Tsc2) gene expression (mHypoE-46 cell line [1]; [3]): increased
Npy mRNA expression, time course (mHypoE-46 cell line [1]; 100 μM BAP, all time points tested: 2, 4, 8, 16, and 24 hr): significantly downregulate
insulin receptor subunit beta (Insrb) expression by qRT-PCR (mHypoE-46 cell line [1]; BAP, 16 h): increased
BAP dose at which magnitude of Npy downregulation plateaus (mHypoE-46 cell line [1]; dose curve, 16 hr): 250 µM
lowest BAP concentration significantly decreasing Npy mRNA expression (mHypoE-46 cell line [1]; dose curve, 16 hr): 50 µM
Agrp mRNA expression (mHypoE-38 cell line): increased
Npy mRNA expression (mHypoE-38 cell line): no effect
ERK1/2 phosphorylation at Thr202/Tyr204 (ERK1/2): significantly decreased
4e-BPI (Eif4ebp I), RNA-seq data 4 h (mHypoE-46 cell line [2]; 4 h): ↑
S6K (Rps6kbI), RNA-seq data 4 h (mHypoE-46 cell line [2]; 4 h): ns
Sestrin2 (Sesn2), RNA-seq data 4 h (mHypoE-46 cell line [2]; 4 h): ↑
TSC2 (Tsc2), RNA-seq data 4 h (mHypoE-46 cell line [2]; 4 h): ns
ULK I (Ulk I), RNA-seq data 4 h (mHypoE-46 cell line [2]; 4 h): ns
4e-BPI (Eif4ebp I), RNA-seq data 16 h (mHypoE-46 cell line [2]; 16 h): ↑
S6K (Rps6kbI), RNA-seq data 16 h (mHypoE-46 cell line [2]; 16 h): ↓
Sestrin2 (Sesn2), RNA-seq data 16 h (mHypoE-46 cell line [2]; 16 h): ↑
TSC2 (Tsc2), RNA-seq data 16 h (mHypoE-46 cell line [2]; 16 h): ↑
ULK I (Ulk I), RNA-seq data 16 h (mHypoE-46 cell line [2]; 16 h): ↑
early growth response protein 1 (Egr1) gene expression (mHypoE-46 cell line [2]; [4]): highly downregulated
early growth response protein 3 (Egr3) gene expression (mHypoE-46 cell line [2]; [4]): highly downregulated
c-fos gene expression (mHypoE-46 cell line [2]; validated in mHypoE-46): significantly downregulated
c-jun gene expression (mHypoE-46 cell line [2]; validated in mHypoE-46): significantly downregulated
